We go through 25 compounds from patent US20240083888A1, “SMALL MOLECULE INHIBITOR FOR CATHEPSIN C AND MEDICINAL USE THEREOF” (REISTONE BIOPHARMA COMPANY LIMITED, priority 2020, published 2024).

One assay deals with CatC (Homo sapiens (Human), UniProt P53634). Nature of the assay: In vitro CatC cell activity experiment in U937 cell line. The format is cell-based. As for the experimental part: The U937 cell line was resuscitated and passed for about two generations, and the cell line with good growth status was selected. The cell suspension was transferred into a centrifuge tube, and centrifuged at 800 to 1000 rpm for 3 to 5 minutes. The supernatant was discarded. An appropriate volume of culture medium was added to the centrifuge tube, which was gently pipetted to resuspend the cells evenly. The cells were counted using a Vi-Cell XR cell counter. The cell suspension was adjusted to an appropriate concentration. The cell suspension was added into a 384-well plate ([…]). The compound was formulated into a 10 mM solution with DMSO. The compound was diluted with DMSO to obtain a 1 mM solution, and a semi-logarithmi dilution was carried out by HPD300 with DMSO to obtain 10 concentrations. Gly-Phe-AFC was formulated into a 35 mM solution with DMSO and divided. […] After adding the compounds and incubating for 1 hour in an incubator, substrate-AFC was added (12.5 μL was added to the plate). The plate was incubated for 30 minutes and read. […] XLFit was used to draw the drug efficacy inhibition rate curve and calculate the IC50 value. 4-parameter model [fit=(A+((B−A)/(1+((C/x)^D))))] was used.

Another assay addresses rhCatC (Homo sapiens (Human), UniProt P53634). Nature of the assay: In vitro enzyme activity experiment of rhCatC (AMC fluorescence assay). The format is biochemical. Particulars: rhCatC enzyme, substrate H-Gly-Arg-AMC; read-out: Biological activity IC50. As for the experimental part: The in vitro inhibitory effect of compounds and positive control on rhCatC enzyme activity was evaluated by AMC fluorescence assay. rhCatC can catalyze the reaction of substrate peptide H-Gly-Arg-AMC, and release AMC to generate fluorescence. […] The compound was diluted with DMSO to a 384-well echo plate at a concentration of 100× of the highest concentration at the beginning of the experiment. 0.2 μL of the diluted compound was pipetted to a black-bottomed 384-well reaction plate for later use. The negative control well was DMSO. • 2) Activation of rhCatC: RhCatC and rhCatL were added to the activation buffer to obtain a final concentration of rhCatC of 100 μg/mL and a final concentration of rhCatL of 20 μg/mL, and incubated at room temperature for 1 hour. • 3) Enzyme activity reaction: Activated rhCatC was diluted to 0.4 μg/mL with the reaction buffer. The solution was added to the black-bottom 384-well reaction plate ([…]). 10 μL of the buffer was added for the vehicle control group. The plate containing compounds in its wells was incubated at room temperature for 30 minutes.
The RLU data was read, the inhibition rate was calculated, and the IC50 value was calculated according to the fitting curve of concentration and inhibition rate.

Where [1] appears, read: U937 cells, CatC cell activity, read-out: Biological activity IC50.

Where a name gives a salt, the structure may show the parent alone. Read-outs that look alike come from different tables or passages of the source.

rhCatC, sequence (P53634 25-134): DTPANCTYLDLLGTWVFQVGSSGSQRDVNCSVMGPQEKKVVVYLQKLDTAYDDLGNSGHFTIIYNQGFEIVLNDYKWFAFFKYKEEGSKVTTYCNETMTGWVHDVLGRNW
rhCatC, sequence (P53634 231-394): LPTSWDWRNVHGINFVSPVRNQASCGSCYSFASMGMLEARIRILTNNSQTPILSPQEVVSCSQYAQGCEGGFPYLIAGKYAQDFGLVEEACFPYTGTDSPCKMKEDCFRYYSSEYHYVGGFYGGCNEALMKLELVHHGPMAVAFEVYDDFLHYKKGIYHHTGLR
rhCatC, sequence (P53634 395-463): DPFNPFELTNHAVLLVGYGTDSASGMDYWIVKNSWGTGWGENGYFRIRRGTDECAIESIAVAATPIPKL

On to `N#CC(Cc1ccc2c(c1)CCc1ccccc1-2)NC(=O)C1(N)CCOCC1` (centres unmarked) [Compound 7, 4-Amino-N-(1-cyano-2-(9,10-dihydrophenanthren-2-yl)ethyl)tetrahydro-2H-pyran-4-carboxamide], for which the concentration for half-maximal inhibition (IC50) at CatC (setting [1]) is 10.2 nM; on rhCatC it was 6.8 nM.
As to `N#C[C@H](Cc1ccc2c(c1)CCc1ccccc1-2)NC(=O)[C@@H]1CNCCCO1` [Compound 8, (S)—N—((S)-1-Cyano-2-(9,10-dihydrophenanthren-2-yl)ethyl)-1,4-oxazepane-2-carboxamide], the concentration for half-maximal inhibition (IC50) on CatC (setting [1]) is 220 nM; on rhCatC it was 60 nM.
On to `N#CC(Cc1cc2c(cc1F)-c1ccc(F)cc1CO2)NC(=O)[C@@H]1CNCCCO1` (stereo partly drawn) [Compound 12, (2S)—N-(1-Cyano-2-(2,8-difluoro-6H-benzo[c]chromen-3-yl)ethyl)-1,4-oxazepane-2-carboxamide], for which the results for the half-maximal inhibitory concentration (IC50) at CatC and at rhCatC were 23 nM and 16 nM, respectively.
In the same order, the values of `N#Cc1ccc2c(c1)COc1cc(CC(C#N)NC(=O)[C@@H]3CNCCCO3)ccc1-2` (stereo partly drawn) [Compound 13, (2S)—N-(1-Cyano-2-(8-cyano-6H-benzo[c]chromen-3-yl)ethyl)-1,4-oxazepane-2-carboxamide] are 87.6 nM and 37 nM.
Consider `N#C[C@H](Cc1ccc2c(c1)OCc1cc(F)c(F)cc1-2)NC(=O)[C@@H]1CNCCCO1` [Compound 16, (S)—N—((S)-1-Cyano-2-(8,9-difluoro-6H-benzo[c]chromen-3-yl)ethyl)-1,4-oxazepane-2-carboxamide], for which the IC50 on CatC stood at 186 nM; on rhCatC it was 91 nM.
Consider `N#C[C@H](Cc1ccc2c(c1)OCc1cc(F)c(F)cc1-2)NC(=O)C1(N)CCOCC1` [Compound 17, (S)-4-Amino-N-(1-cyano-2-(8,9-difluoro-6H-benzo[c]chromen-3-yl)ethyl)tetrahydro-2H-pyran-4-carboxamide], for which the IC50 at CatC was determined as 6.2 nM; on rhCatC, 5.7 nM.
On to `N#Cc1cc2c(cn1)-c1cc(F)c(CC(C#N)NC(=O)[C@@H]3CNCCCO3)cc1OC2` (stereo partly drawn) [Compound 18, (2S)—N-(1-Cyano-2-(3-cyano-9-fluoro-5H-chromeno[4,3-c]pyridin-8-yl)ethyl)-1,4-oxazepane-2-carboxamide], for which the values for the IC50 at CatC and at rhCatC were 29.5 nM and 49 nM, respectively.
The matching figures for `N#C[C@H](Cc1cc2c(cc1F)-c1ccc(F)cc1CO2)NC(=O)[C@@H]1CNCCCO1` [Compound 20, (S)—N—((S)-1-Cyano-2-(2,8-difluoro-6H-benzo[c]chromen-3-yl)ethyl)-1,4-oxazepane-2-carboxamide]: 7.8 nM and 11 nM.
With `N#Cc1ccc2c(c1)COc1cc(C[C@@H](C#N)NC(=O)[C@@H]3CNCCCO3)c(Cl)cc1-2` [Compound 21, (S)—N—((S)-2-(2-Chloro-8-cyano-6H-benzo[c]chromen-3-yl)-1-cyanoethyl)-1,4-oxazepane-2-carboxamide], the concentration for half-maximal inhibition (IC50) against CatC is 24.6 nM.
`N#CC(Cc1ccc2c(c1)OCc1cc(F)ccc1-2)NC(=O)C1(N)CCOCC1` (centres unmarked) [Compound 22, 4-Amino-N-(1-cyano-2-(8-fluoro-6H-benzo[c]chromen-3-yl)ethyl)tetrahydro-2H-pyran-4-carboxamide formate]: the IC50 worked out at 5.5 nM on CatC and 3.2 nM on rhCatC.
In the same order, the values of `N#CC(Cc1cc2c(cc1F)-c1ccc(F)cc1CO2)NC(=O)C1(N)CCOCC1` (centres unmarked) [Compound 24, 4-Amino-N-(1-cyano-2-(2,8-difluoro-6H-benzo[c]chromen-3-yl)ethyl)tetrahydro-2H-pyran-4-carboxamide] are 4.3 nM and 2.7 nM.
In the same order, the values of `N#Cc1ccc2c(c1)COc1cc(CC(C#N)NC(=O)C3(N)CCOCC3)ccc1-2` (centres unmarked) [Compound 25, 4-Amino-N-(1-cyano-2-(8-cyano-6H-benzo[c]chromen-3-yl)ethyl)tetrahydro-2H-pyran-4-carboxamide] are 5.52 nM and 3.1 nM.
For `N#Cc1ccc2c(c1)COc1cc(C[C@@H](C#N)NC(=O)[C@@H]3C[C@@H]4CCC[C@@H]4N3)c(F)cc1-2` [Compound 26, (2S,3aS,6aS)—N—((S)-1-Cyano-2-(8-cyano-2-fluoro-6H-benzo[c]chromen-3-yl)ethyl)octahydrocyclopenta[b]pyrrole-2-carboxamide], the IC50 at CatC (setting [1]) worked out at 6.7 nM; on rhCatC, 8.9 nM.
Compound `N#CC(Cc1ccc2c(c1)OCc1ccc(C3COC3)cc1-2)NC(=O)[C@@H]1CNCCCO1` (stereo partly drawn) [Compound 28, (2S)—N-(1-Cyano-2-(9-(oxetan-3-yl)-6H-benzo[c]chromen-3-yl)ethyl)-1,4-oxazepane-2-carboxamide] returned an IC50 on CatC of 50.1 nM.
In the case of `CS(=O)(=O)c1ccc2c(c1)COc1cc(CC(C#N)NC(=O)[C@@H]3CNCCCO3)c(F)cc1-2` (stereo partly drawn) [Compound 29, (2S)—N-(1-Cyano-2-(2-fluoro-8-(methylsulfonyl)-6H-benzo[c]chromen-3-yl)ethyl)-1,4-oxazepane-2-carboxamide], the half-maximal inhibitory concentration (IC50) came to 36.8 nM against CatC and 17.1 nM on rhCatC.
The matching figures for `CS(=O)(=O)c1ccc2c(c1)COc1cc(C[C@@H](C#N)NC(=O)[C@@H]3CNCCCO3)c(F)cc1-2` [Compound 30, (S)—N—((S)-1-Cyano-2-(2-fluoro-8-(methylsulfonyl)-6H-benzo[c]chromen-3-yl)ethyl)-1,4-oxazepane-2-carboxamide]: 9.6 nM and 10 nM.
`N#Cc1ccc2c(c1)-c1cc(F)c(CC(C#N)NC(=O)[C@@H]3CNCCCO3)cc1OC2` (stereo partly drawn) [Compound 31, (2S)—N-(1-Cyano-2-(9-cyano-2-fluoro-6H-benzo[c]chromen-3-yl)ethyl)-1,4-oxazepane-2-carboxamide] registered a 50% inhibitory concentration (IC50) against CatC of 38.4 nM.
As for `N#CC(Cc1cc2c(cc1F)-c1ccc(S(=O)(=O)N3CCC3)cc1CO2)NC(=O)[C@@H]1CNCCCO1` (stereo partly drawn) [Compound 35, (2S)—N-(2-(8-(Azetidin-1-ylsulfonyl)-2-fluoro-6H-benzo[c]chromen-3-yl)-1-cyanoethyl)-1,4-oxazepane-2-carboxamide], the IC50 stood at 37.9 nM on CatC (setting [1]) and 15 nM on rhCatC.
`N#CC(Cc1ccc2c(c1)OCCc1cc(F)ccc1-2)NC(=O)C1(N)CCOCC1` (centres unmarked) [Compound 36, 4-Amino-N-(1-cyano-2-(9-fluoro-6,7-dihydrodibenzo[b,d]oxepin-3-yl)ethyl)tetrahydro-2H-pyran-4-carboxamide]: the IC50 on CatC (setting [1]) is 23.7 nM; on rhCatC, 7.1 nM.
In the same order, the values of `N#CC(Cc1ccc2c(c1)COCc1cc(F)ccc1-2)NC(=O)C1(N)CCOCC1` (centres unmarked) [Compound 37, 4-Amino-N-(1-cyano-2-(9-fluoro-5,7-dihydrodibenzo[c,e]oxepin-3-yl)ethyl)tetrahydro-2H-pyran-4-carboxamide] are 8.6 nM and 14 nM.
In the case of `CN1Cc2cc(F)ccc2-c2ccc(C[C@@H](C#N)NC(=O)C3(N)CCOCC3)cc2C1=O` [Compound 40, (S)-4-Amino-N-(1-cyano-2-(9-fluoro-6-methyl-5-oxo-6,7-dihydro-5H-dibenzo[c,e]azepin-3-yl)ethyl)tetrahydro-2H-pyran-4-carboxamide], the 50% inhibitory concentration (IC50) turned out to be 10.3 nM at CatC (setting [1]) and 3.7 nM at rhCatC.
In the same order, the values of `CN1Cc2cc(C#N)ccc2-c2cc(F)c(C[C@@H](C#N)NC(=O)[C@@H]3CNCCCO3)cc2C1=O` [Compound 41, (S)—N—((S)-1-Cyano-2-(9-cyano-2-fluoro-6-methyl-5-oxo-6,7-dihydro-5H-dibenzo[c,e]azepin-3-yl)ethyl)-1,4-oxazepane-2-carboxamide] are 117 nM and 30.5 nM.
For `N#C[C@H](Cc1ccc2c(c1)CCN(C(=O)c1ccc(F)cc1)C2)NC(=O)C1(N)CCOCC1` [Compound 56, (S)-4-Amino-N-(1-cyano-2-(2-(4-fluorobenzoyl)-1,2,3,4-tetrahydroisoquinolin-6-yl)ethyl)tetrahydro-2H-pyran-4-carboxamide], the IC50 on rhCatC was 37 nM.
The same measure, in the same setting: to `N#C[C@H](Cc1ccc2c(c1)CCN(c1ccc(F)cc1)C2)NC(=O)C1(N)CCOCC1` [Compound 57, (S)-4-Amino-N-(1-cyano-2-(2-(4-fluorophenyl)-1,2,3,4-tetrahydroisoquinolin-6-yl)ethyl)tetrahydro-2H-pyran-4-carboxamide] belongs 48 nM.
For `N#C[C@H](Cc1ccc2c(c1)CC(=O)N(c1ccc(F)cc1)C2)NC(=O)C1(N)CCCCC1` [Compound 58, (S)-1-Amino-N-(1-cyano-2-(2-(4-fluorophenyl)-3-oxo-1,2,3,4-tetrahydroisoquinolin-6-yl)ethyl)cyclohexane-1-carboxamide], the concentration for half-maximal inhibition (IC50) on CatC (setting [1]) amounted to 99.3 nM.

Broadly, the IC50 is the midpoint of a concentration-inhibition curve.
